Experimental data from patent publication US20260092071A1, “COMPOUNDS AND COMPOSITIONS AS SMARCA2/4 DEGRADERS AND USES THEREOF” (REGENTS OF THE UNIVERSITY OF MICHIGAN, priority 2022, published 2026).

Legend:
SMARCA2 [1] = biological target: T1, SMARCA2 (Homo sapiens, UniProt P51531); test: HiBiT assay for protein degradation, Hela SMARCA2-HiBiT cells (A series); format: cell-based; set-up: Hela cells were genetically modified via CRISPR/Cas9 to fuse HiBiT to the carboxy terminus of SMARCA2; host or cells: HeLa (CRISPR/Cas9 HiBiT knock-in); conditions: Hela SMARCA2-HiBiT cells, 24 hours treatment; for Dmax: read-out: SMARC A2 Hela HiBit Dmax (%); for DC50: read-out: SMARC A2 Hela HiBit DC50;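 for SMARC A2 Hela HiBit Dmax (%): 24 h compound treatment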
Procedure: Hela cells were genetically modified via CRISPR/Cas9 to fuse HiBiT to the carboxy terminus of SMARCA2 (Promega CS302365) or SMARCA4 (Promega CS3023225). Cells were cultured in DMEM containing 10% FBS and 1% (Vol:Vol) penicillin-streptomycin. […] At the end of experiment, levels of SMARCA2 or SMARCA4 expression were assessed with Nano-Glo® HiBiT Lytic Detection Assay (Promega N3050). IC50 was obtained using the GraphPad Prism data analysis software.

SMARCA2 [2] = biological target: T1, SMARCA2; test: HiBit assay in engineered HT1080 CRISPR knock-in cell, 6 hrs (B series), SMARCA2; format: cell-based; conditions: 6 hrs incubation
Procedure: The HiBit assay was performed using engineered HT1080 CRISPR knock-in cell utilizing the Nano-Glo HiBiT Lytic Detection System from Promega, Cat #N3040. Compounds were transferred, 25 nL DMSO or test compounds (final DMSO @ 0.1%) to intermediate plates (Corning3570) using ECHO550. Cells were seeded onto compounds at 2000 cells/25 μL/well and incubated for 6 hrs in a tissue culture incubator at 37° C. and 5% CO2. The LgBiT Protein was diluted at 1:100 and the Nano-Glo® HiBIT Lytic Substrate 1:50 into an appropriate volume of room temperature using the Nano-Glo® HiBiT Lytic Buffer. At the end of compound incubation time, 15 ul of the detection reagent was added to each well (without LgBiT for negative control wells) using the Thermo Scientific multidrop combi. The plate was shaken for 10 mins at RT using Combi. After briefly centrifugation (2000 rpm 1 mins), plate was read on Envision (Ultrasensitive luminescence model).

T1 sequence (P51531 whole entry): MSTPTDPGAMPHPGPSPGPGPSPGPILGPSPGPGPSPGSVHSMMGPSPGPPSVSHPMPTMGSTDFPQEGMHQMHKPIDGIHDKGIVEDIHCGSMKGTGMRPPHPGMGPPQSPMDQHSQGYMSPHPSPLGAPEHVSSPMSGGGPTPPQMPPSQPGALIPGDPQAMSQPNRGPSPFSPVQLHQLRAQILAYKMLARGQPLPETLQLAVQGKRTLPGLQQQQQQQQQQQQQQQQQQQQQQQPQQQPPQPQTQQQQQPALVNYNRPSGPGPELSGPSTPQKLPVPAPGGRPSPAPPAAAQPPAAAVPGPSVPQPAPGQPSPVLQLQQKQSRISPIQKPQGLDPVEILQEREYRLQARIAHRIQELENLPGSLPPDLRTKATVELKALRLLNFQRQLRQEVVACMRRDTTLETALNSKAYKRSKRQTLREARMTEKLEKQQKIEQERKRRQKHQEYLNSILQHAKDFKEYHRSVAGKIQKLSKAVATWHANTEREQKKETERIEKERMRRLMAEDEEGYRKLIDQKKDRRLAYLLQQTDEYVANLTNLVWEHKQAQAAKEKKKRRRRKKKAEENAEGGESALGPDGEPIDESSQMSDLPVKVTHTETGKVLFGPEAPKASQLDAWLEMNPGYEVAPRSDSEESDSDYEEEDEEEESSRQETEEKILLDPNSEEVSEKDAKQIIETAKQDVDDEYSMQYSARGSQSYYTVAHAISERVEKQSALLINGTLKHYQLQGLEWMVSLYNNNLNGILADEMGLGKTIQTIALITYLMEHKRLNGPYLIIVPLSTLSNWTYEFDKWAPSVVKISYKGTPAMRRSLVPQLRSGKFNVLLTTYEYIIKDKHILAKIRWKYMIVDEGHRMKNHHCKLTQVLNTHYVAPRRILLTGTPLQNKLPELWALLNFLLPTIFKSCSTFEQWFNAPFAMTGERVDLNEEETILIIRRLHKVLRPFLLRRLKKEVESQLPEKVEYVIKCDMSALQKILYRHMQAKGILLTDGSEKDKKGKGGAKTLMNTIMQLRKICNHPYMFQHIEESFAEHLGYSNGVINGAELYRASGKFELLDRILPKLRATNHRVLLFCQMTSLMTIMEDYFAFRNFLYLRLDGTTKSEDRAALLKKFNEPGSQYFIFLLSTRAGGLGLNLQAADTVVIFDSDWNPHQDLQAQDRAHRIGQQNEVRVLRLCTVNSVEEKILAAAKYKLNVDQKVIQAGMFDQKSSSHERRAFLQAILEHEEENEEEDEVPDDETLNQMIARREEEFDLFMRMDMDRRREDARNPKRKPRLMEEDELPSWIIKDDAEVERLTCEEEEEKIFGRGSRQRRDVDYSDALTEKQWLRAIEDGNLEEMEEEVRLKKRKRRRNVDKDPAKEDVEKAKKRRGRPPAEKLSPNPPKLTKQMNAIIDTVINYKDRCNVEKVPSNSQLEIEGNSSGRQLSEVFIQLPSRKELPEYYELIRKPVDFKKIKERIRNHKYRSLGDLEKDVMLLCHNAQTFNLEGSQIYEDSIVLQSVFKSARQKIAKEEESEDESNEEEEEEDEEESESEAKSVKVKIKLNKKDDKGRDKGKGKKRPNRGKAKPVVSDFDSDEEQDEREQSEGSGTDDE

Structure (SMILES) | Dmax (SMARCA2 [1]) | DC50 (SMARCA2 [1]) | DC50 (SMARCA2 [2]; HT1080 CRISPR knock-in cells, read-out: SMARC A2 HT1080 HiBit DC50) | Dmax (SMARCA2 [2]; HT-1080, HT1080 CRISPR knock-in cells, read-out: SMARC A2 HT1080 HiBit Dmax (%))
Cc1ncsc1-c1ccc([C@H](CN2CCOCC2)NC(=O)[C@@H]2C[C@@H](O)CN2C(=O)[C@@H](n2cc(C3CCN(CC4CCN(c5ccc6c(c5)-n5c(nc(=O)c7c(Cl)cccc75)C65CCCCC5)CC4)CC3)nn2)C(C)(C)C)cc1 [Compound A168, (2S,4R)-1-((S)-2-(4-(1-((1-(4′-chloro-5′-oxo-5′H-spiro[cyclohexane-1,7′-indolo[1,2-a]quinazolin]-10′-yl)piperidin-4-yl)methyl)piperidin-4-yl)-1H-1,2,3-triazol-1-yl)-3,3-dimethylbutanoyl)-4-hydroxy-N—((R)-1-(4-(4-methylthiazol-5-yl)phenyl)-2-morpholinoethyl)pyrrolidine-2-carboxamide] | < 50% | > 1 µM | – | –
Cc1ncsc1-c1ccc([C@H](CN2CCOCC2)NC(=O)[C@@H]2C[C@@H](O)CN2C(=O)[C@@H](n2cc([C@H]3CC[C@H](CN4CCC(c5ccc6c(c5)-n5c(nc(=O)c7c(Br)cccc75)C65CCCCC5)CC4)CC3)nn2)C(C)(C)C)cc1 [Compound A69, (2S,4R)-1-((S)-2-(4-((1r,4S)-4-((4-(4′-bromo-5′-oxo-5′H-spiro[cyclohexane-1,7′-indolo[1,2-a]quinazolin]-10′-yl)piperidin-1-yl)methyl)cyclohexyl)-1H-1,2,3-triazol-1-yl)-3,3-dimethylbutanoyl)-4-hydroxy-N—((R)-1-(4-(4-methylthiazol-5-yl)phenyl)-2-morpholinoethyl)pyrrolidine-2-carboxamide] | > 90% | < 0.1 µM | – | –
Cc1ncsc1-c1ccc([C@H](CN2CCOCC2)NC(=O)[C@@H]2C[C@@H](O)CN2C(=O)[C@@H](n2cc([C@H]3CC[C@H](CN4CCC(c5ccc6c(c5)-n5c(nc(=O)c7c(Br)cccc75)C65CCCCC5)CC4)CC3)nn2)C(C)(C)C)cc1 [Compound B112, (2S,4R)-1-((S)-2-(4-((1r,4S)-4-((4-(4′-bromo-5′-oxo-5′H-spiro[cyclohexane-1,7′-indolo[1,2-a]quinazolin]-10′-yl)piperidin-1-yl)methyl)cyclohexyl)-1H-1,2,3-triazol-1-yl)-3,3-dimethylbutanoyl)-4-hydroxy-N-((R)-1-(4-(4-methylthiazol-5-yl)phenyl)-2-morpholinoethyl)pyrrolidine-2-carboxamide] | – | – | < 0.1 µM | > 90%
Cc1ncsc1-c1ccc([C@H](CN2CCOCC2)NC(=O)[C@@H]2C[C@@H](O)CN2C(=O)[C@@H](n2cc(C3CCN(CC4CCN(c5ccc6c(c5)-n5c(nc(=O)c7c(Br)cccc75)C65CCCCC5)CC4)CC3)nn2)C(C)(C)C)cc1 [Compound A169, (2S,4R)-1-((S)-2-(4-(1-((1-(4′-bromo-5′-oxo-5′H-spiro[cyclohexane-1,7′-indolo[1,2-a]quinazolin]-10′-yl)piperidin-4-yl)methyl)piperidin-4-yl)-1H-1,2,3-triazol-1-yl)-3,3-dimethylbutanoyl)-4-hydroxy-N—((R)-1-(4-(4-methylthiazol-5-yl)phenyl)-2-morpholinoethyl)pyrrolidine-2-carboxamide] | – | > 1 µM | – | –
Cc1ncsc1-c1ccc([C@H](CN2CCOCC2)NC(=O)[C@@H]2C[C@@H](O)CN2C(=O)[C@@H](n2cc([C@H]3CC[C@H](CN4CCC(c5ccc6c(n5)-n5c(nc(=O)c7c(Br)cccc75)C65CCCCC5)CC4)CC3)nn2)C(C)(C)C)cc1 [Compound A52, (2S,4R)-1-((S)-2-(4-((1r,4S)-4-((4-(4′-bromo-5′-oxo-5′H-spiro[cyclohexane-1,7′-pyrido[3′,2′: 4,5]pyrrolo[1,2-a]quinazolin]-10′-yl)piperidin-1-yl)methyl)cyclohexyl)-1H-1,2,3-triazol-1-yl)-3,3-dimethylbutanoyl)-4-hydroxy-N—((R)-1-(4-(4-methylthiazol-5-yl)phenyl)-2-morpholinoethyl)pyrrolidine-2-carboxamide] | 70 to 90% | < 0.1 µM | – | –

Second part, led by results:

Dmax (SMARCA2 [1]) | DC50 (SMARCA2 [1]) | Structure (SMILES) | DC50 (SMARCA2 [2]; HT1080 CRISPR knock-in cells, read-out: SMARC A2 HT1080 HiBit DC50) | Dmax (SMARCA2 [2]; HT-1080, HT1080 CRISPR knock-in cells, read-out: SMARC A2 HT1080 HiBit Dmax (%))
> 90% | < 0.01 µM | COCCOCCOCC[C@H](NC(=O)[C@@H]1C[C@@H](O)CN1C(=O)[C@@H](n1cc([C@H]2CC[C@H](CN3CCC(c4ccc5c(c4)-n4c(nc(=O)c6c(Cl)cccc64)C54CCCCC4)CC3)CC2)nn1)C(C)(C)C)c1ccc(-c2scnc2C)cc1 [Compound A82, (2S,4R)-1-((S)-2-(4-((1r,4S)-4-((4-(4′-chloro-5′-oxo-5′H-spiro[cyclohexane-1,7′-indolo[1,2-a]quinazolin]-10′-yl)piperidin-1-yl)methyl)cyclohexyl)-1H-1,2,3-triazol-1-yl)-3,3-dimethylbutanoyl)-4-hydroxy-N—((S)-3-(2-(2-methoxyethoxy)ethoxy)-1-(4-(4-methylthiazol-5-yl)phenyl)propyl)pyrrolidine-2-carboxamide] | – | –
70 to 90% | < 0.01 µM | Cc1ncsc1-c1ccc([C@H](CCN2CC(C)(F)C2)NC(=O)[C@@H]2C[C@@H](O)CN2C(=O)[C@@H](n2cc([C@H]3CC[C@H](CN4CCC(c5ccc6c(c5)-n5c(nc(=O)c7c(Cl)cccc75)C65CCCCC5)CC4)CC3)nn2)C(C)(C)C)cc1 [Compound A79, (2S,4R)-1-((S)-2-(4-((1r,4S)-4-((4-(4′-chloro-5′-oxo-5′H-spiro[cyclohexane-1,7′-indolo[1,2-a]quinazolin]-10′-yl)piperidin-1-yl)methyl)cyclohexyl)-1H-1,2,3-triazol-1-yl)-3,3-dimethylbutanoyl)-N—((S)-3-(3-fluoro-3-methylazetidin-1-yl)-1-(4-(4-methylthiazol-5-yl)phenyl)propyl)-4-hydroxypyrrolidine-2-carboxamide] | – | –
> 90% | < 0.01 µM | Cc1ncsc1-c1ccc([C@H](CCN2CCOCC2)NC(=O)[C@@H]2C[C@@H](O)CN2C(=O)[C@@H](n2cc([C@H]3CC[C@H](CN4CCC(c5ccc6c(c5)-n5c(nc(=O)c7c(Cl)cccc75)C65CCCCC5)CC4)CC3)nn2)C(C)(C)C)cc1 [Compound A81, (2S,4R)-1-((S)-2-(4-((1r,4S)-4-((4-(4′-chloro-5′-oxo-5′H-spiro[cyclohexane-1,7′-indolo[1,2-a]quinazolin]-10′-yl)piperidin-1-yl)methyl)cyclohexyl)-1H-1,2,3-triazol-1-yl)-3,3-dimethylbutanoyl)-4-hydroxy-N—((S)-1-(4-(4-methylthiazol-5-yl)phenyl)-3-morpholinopropyl)pyrrolidine-2-carboxamide] | – | –
70 to 90% | 0.01 to 0.1 µM | Cc1ncsc1-c1ccc([C@H](CN2CCOCC2)NC(=O)[C@@H]2C[C@@H](O)CN2C(=O)[C@@H](n2cc([C@H]3CC[C@H](CN4CCC(c5ccc6c(n5)-n5c(nc(=O)c7c(Cl)cccc75)C65CCCCC5)CC4)CC3)nn2)C(C)(C)C)cc1 [Compound A77, (2S,4R)-1-((S)-2-(4-((1r,4S)-4-((4-(4′-chloro-5′-oxo-5′H-spiro[cyclohexane-1,7′-pyrido[3′,2′: 4,5]pyrrolo[1,2-a]quinazolin]-10′-yl)piperidin-1-yl)methyl)cyclohexyl)-1H-1,2,3-triazol-1-yl)-3,3-dimethylbutanoyl)-4-hydroxy-N—((R)-1-(4-(4-methylthiazol-5-yl)phenyl)-2-morpholinoethyl)pyrrolidine-2-carboxamide] | – | –
70 to 90% | 0.01 to 0.1 µM | Cc1ncsc1-c1ccc([C@H](CCN2CC(C)(O)C2)NC(=O)[C@@H]2C[C@@H](O)CN2C(=O)[C@@H](n2cc([C@H]3CC[C@H](CN4CCC(c5ccc6c(c5)-n5c(nc(=O)c7c(Cl)cccc75)C65CCCCC5)CC4)CC3)nn2)C(C)(C)C)cc1 [Compound A80, (2S,4R)-1-((S)-2-(4-((1r,4S)-4-((4-(4′-chloro-5′-oxo-5′H-spiro[cyclohexane-1,7′-indolo[1,2-a]quinazolin]-10′-yl)piperidin-1-yl)methyl)cyclohexyl)-1H-1,2,3-triazol-1-yl)-3,3-dimethylbutanoyl)-4-hydroxy-N—((S)-3-(3-hydroxy-3-methylazetidin-1-yl)-1-(4-(4-methylthiazol-5-yl)phenyl)propyl)pyrrolidine-2-carboxamide] | – | –
< 50% | > 1 µM | Cc1ncsc1-c1ccc([C@H](CN2CCOCC2)NC(=O)[C@@H]2C[C@@H](O)CN2C(=O)[C@@H](n2cc(C3CCC(CN4CCC(c5ccc6c(c5)-n5c(nc(=O)c7ccccc75)C65CCCCC5)CC4)CC3)nn2)C(C)(C)C)cc1 (stereo partly drawn) [Compound A170, (2S,4R)-1-((S)-3,3-dimethyl-2-(4-(4-((4-(5′-oxo-5′H-spiro[cyclohexane-1,7′-indolo[1,2-a]quinazolin]-10′-yl)piperidin-1-yl)methyl)cyclohexyl)-1H-1,2,3-triazol-1-yl)butanoyl)-4-hydroxy-N—((R)-1-(4-(4-methylthiazol-5-yl)phenyl)-2-morpholinoethyl)pyrrolidine-2-carboxamide] | – | –
